Source: patent publication US11053234B2 (GlaxoSmithKline Intellectual Property Development Limited, priority 2016, dated 2021)
Counter-ions that a name gives are not always drawn.

Target: T1, haematopoietic prostaglandin D synthase (H-PGDS) (Homo sapiens, UniProt O60760)
T1 construct: Full length human H-PGDS cDNA (Invitrogen Ultimate ORF 10H13026) was amplified by PCR; 6-His (N); TEV protease cleavage site (N); made in house; host or cells: E. coli BL21 (DE3*), vector pET22b+
Assay: H-PGDS RapidFire high throughput mass spectrometry assay (conversion of PGH2 to PGD2)
Assay type: biochemical
Conditions: 10 nM H-PGDS, PGH2 formed in situ by COX-2 from arachidonic acid; read-out: Potency Range (mean pIC50) (converted)
How it was run: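 RapidFire SPE–MS read-out calculated percent conversion from relative PGD2 and PGF2α (substrate surrogate) levels. Recombinant full-length human H-PGDS (His-tag, E. coli) turned over PGH2, produced in situ at ˜10 μM by human COX-2 (FLAG-tag, Sf9 cells) acting on arachidonic acid.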

T1 sequence (O60760 whole entry): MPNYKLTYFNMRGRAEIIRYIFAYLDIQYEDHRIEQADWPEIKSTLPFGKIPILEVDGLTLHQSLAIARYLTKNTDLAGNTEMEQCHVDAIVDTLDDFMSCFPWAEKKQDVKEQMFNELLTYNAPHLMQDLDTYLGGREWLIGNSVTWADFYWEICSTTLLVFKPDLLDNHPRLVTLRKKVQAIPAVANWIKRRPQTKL

For `Cn1nc(C2CC2)cc1NC(=O)[C@H]1C[C@H](Oc2cccc3cccnc23)C1` [Example 214, (trans)-N-(3-Cyclopropyl-1-methyl-1H-pyrazol-5-yl)-3-(quinolin-8-yloxy)cyclobutanecarboxamide], which IC50 is on record?
The IC50 was 100 to 1000 nM.

For `CCn1nnnc1NC(=O)N1CC(Oc2cccc3scnc23)C1` [Example 325, 3-(Benzo[d]thiazol-4-yloxy)-N-(1-ethyl-1H-tetrazol-5-yl)azetidine-1-carboxamide], which IC50 is on record?
The IC50 was 100 to 1000 nM.

`O=C(NC12CC(Nc3ncccn3)(C1)C2)[C@H]1C[C@H](Oc2cccc3scnc23)C1` [Example 315, (trans)-3-(Benzo[d]thiazol-4-yloxy)-N-(3-(pyrimidin-2-ylamino)bicyclo[1.1.1]pentan-1-yl)cyclobutane-1-carboxamide] was tested. Which IC50 did it give?
The IC50 was 10 to 79.4 nM.

`CC(O)(CO[C@H]1CC[C@H](NC(=O)[C@H]2C[C@H](Oc3cc(F)ccc3OC(F)F)C2)CC1)C1CC1` (mixture of isomers) [Example 11, Racemic (trans)-N-((trans)-4-(2-Cyclopropyl-2-hydroxypropoxy)cyclohexyl)-3-(2-(difluoromethoxy)-5-fluorophenoxy)cyclobutanecarboxamide] was tested. Which IC50 did it give?
Its IC50 is 10 to 79.4 nM.

How did the IC50 turn out when `CC(=O)c1csc(NC(=O)N2CC(Oc3cccc4scnc34)C2)n1` [Example 62, N-(4-Acetylthiazol-2-yl)-3-(benzo[d]thiazol-4-yloxy)azetidine-1-carboxamide] was run?
The IC50 was 10 to 79.4 nM.

How did the IC50 turn out when `CCc1cccc(O[C@H]2C[C@H](C(=O)N[C@H]3CC[C@H](C(C)(C)O)CC3)C2)c1` [Example 285, (trans)-3-(3-Ethylphenoxy)-N-((trans)-4-(2-hydroxypropan-2-yl)cyclohexyl)cyclobutanecarboxamide] was run?
Its IC50 is 100 to 1000 nM.

For `CC(N[C@H]1CC[C@H](NC(=O)N2CC(Oc3cccc4scnc34)C2)CC1)C(F)F` (mixture of isomers) [Example 40, Racemic 3-(Benzo[d]thiazol-4-yloxy)-N-((trans)-4-((1,1-difluoropropan-2-yl)amino)cyclohexyl)azetidine-1-carboxamide], which IC50 is on record?
The IC50 was 10 to 79.4 nM.

How did the IC50 turn out when `N#Cc1ccc(N2CC(NC(=O)[C@H]3C[C@H](Oc4cccc5scnc45)C3)C2)nc1` [Example 37, (trans)-3-(Benzo[d]thiazol-4-yloxy)-N-(1-(5-cyanopyridin-2-yl)azetidin-3-yl)cyclobutanecarboxamide] was run?
The IC50 was 10 to 79.4 nM.

Which IC50 does the source give for `CC(C)(O)C12CC(NC(=O)[C@H]3C[C@H](Oc4cccc5scnc45)C3)(C1)C2` [Example 318, (trans)-3-(Benzo[d]thiazol-4-yloxy)-N-(3-(2-hydroxypropan-2-yl)bicyclo[1.1.1]pentan-1-yl)cyclobutane-1-carboxamide] here?
The IC50 was 10 to 79.4 nM.

`O=C(Nc1nccs1)[C@H]1C[C@H](Oc2cccc3cccnc23)C1` [Example 184, trans-3-(8-Quinolinyloxy)-N-1,3-thiazol-2-ylcyclobutanecarboxamide] was tested. Which IC50 did it give?
Its IC50 is less than 10 nM.

With `O=C(NC1CN(c2ccccn2)C1)N1CC(Oc2cccc3scnc23)C1` [Example 54, 3-(Benzo[d]thiazol-4-yloxy)-N-(1-(pyridin-2-yl)azetidin-3-yl)azetidine-1-carboxamide] as the compound, how does the IC50 read?
The IC50 was 10 to 79.4 nM.

Which IC50 does the source give for `CC(C)(O)[C@H]1CC[C@H](NC(=O)[C@H]2C[C@H](Oc3ccccc3OC(F)F)C2)CC1` [Example 278, (trans)-3-(2-(Difluoromethoxy)phenoxy)-N-((trans)-4-(2-hydroxypropan-2-yl)cyclohexyl)cyclobutanecarboxamide] here?
Its IC50 is 10 to 79.4 nM.

Which IC50 does the source give for `O=C(Nc1nc(C(F)(F)F)cs1)[C@H]1C[C@H](Oc2cccc3cccnc23)C1` [Example 201, (trans)-3-(Quinolin-8-yloxy)-N-(4-(trifluoromethyl)thiazol-2-yl)cyclobutanecarboxamide] here?
The IC50 was 10 to 79.4 nM.

Which IC50 does the source give for `O=C(Nc1ccnc(C2CC2)n1)N1CC(Oc2cc(F)cc3scnc23)C1` [Example 313, N-(2-Cyclopropylpyrimidin-4-yl)-3-((6-fluorobenzo[d]thiazol-4-yl)oxy)azetidine-1-carboxamide] here?
Its IC50 is 10 to 79.4 nM.

`CCCCn1nnnc1NC(=O)[C@H]1C[C@H](Oc2cc(F)ccc2OC(F)F)C1` [Example 2, (trans)-N-(1-Butyl-1H-tetrazol-5-yl)-3-(2-(difluoromethoxy)-5-fluorophenoxy)cyclobutanecarboxamide] was tested. Which IC50 did it give?
The IC50 was 10 to 79.4 nM.

Which IC50 does the source give for `CNC(=O)c1csc(NC(=O)[C@H]2C[C@H](Oc3cccc4cccnc34)C2)n1` [Example 196, N-Methyl-2-((trans)-3-(quinolin-8-yloxy)cyclobutanecarboxamido)thiazole-4-carboxamide, trifluoroacetic acid salt] here?
Its IC50 is 10 to 79.4 nM.

Which IC50 does the source give for `C[C@@H]1[C@H](Oc2cccc3scnc23)CN1C(=O)N[C@H]1CC[C@H](C(C)(C)O)CC1` [Example 305, (2R,3R)-3-(Benzo[d]thiazol-4-yloxy)-N-((trans)-4-(2-hydroxypropan-2-yl)cyclohexyl)-2-methylazetidine-1-carboxamide] here?
Its IC50 is 10 to 79.4 nM.

How did the IC50 turn out when `CC(C)(O)C(=O)N1CCC(NC(=O)[C@H]2C[C@H](Oc3cc(F)cc4scnc34)C2)CC1` [Example 303, (trans)-3-((6-Fluorobenzo[d]thiazol-4-yl)oxy)-N-(1-(2-hydroxy-2-methylpropanoyl)piperidin-4-yl)cyclobutanecarboxamide] was run?
The IC50 was 100 to 1000 nM.

How did the IC50 turn out when `CC(N[C@H]1CC[C@H](NC(=O)[C@H]2C[C@H](Oc3cccc4cccnc34)C2)CC1)C(F)(F)F` (mixture of isomers) [Example 173, Racemic (trans)-3-(Quinolin-8-yloxy)-N-((trans)-4-((1,1,1-trifluoropropan-2-yl)amino)cyclohexyl)cyclobutanecarboxamide] was run?
The IC50 was 10 to 79.4 nM.

How did the IC50 turn out when `CC(C)(O)c1cnc(NC(=O)[C@H]2C[C@H](Oc3cccc4ccoc34)C2)s1` [Example 265, (trans)-3-(Benzofuran-7-yloxy)-N-(5-(2-hydroxypropan-2-yl)thiazol-2-yl)cyclobutanecarboxamide] was run?
The IC50 was 10 to 79.4 nM.

Which IC50 does the source give for `CN(C)c1ccnc(N2CC(NC(=O)[C@H]3C[C@H](Oc4cccc5scnc45)C3)C2)n1` [Example 75, (trans)-3-(Benzo[d]thiazol-4-yloxy)-N-(1-(4-(dimethylamino)pyrimidin-2-yl)azetidin-3-yl)cyclobutanecarboxamide] here?
The IC50 was 10 to 79.4 nM.

With `O=C(Nc1ccc(N2CCOCC2)cc1)[C@H]1C[C@H](Oc2cccc3scnc23)C1` [Example 243, (trans)-3-(Benzo[d]thiazol-4-yloxy)-N-(4-morpholinophenyl)cyclobutanecarboxamide] as the compound, how does the IC50 read?
The IC50 was 10 to 79.4 nM.

Which IC50 does the source give for `O=C(NC1CN(c2ccc(F)cn2)C1)[C@H]1C[C@H](Oc2cccc3scnc23)C1` [Example 44, (trans)-3-(Benzo[d]thiazol-4-yloxy)-N-(1-(5-fluoropyridin-2-yl)azetidin-3-yl)cyclobutanecarboxamide] here?
The IC50 was 10 to 79.4 nM.

For `CCOC(=O)c1nnc(NC(=O)[C@H]2C[C@H](Oc3cccc4cccnc34)C2)[nH]1` [Example 176, Ethyl 5-((trans)-3-(quinolin-8-yloxy)cyclobutanecarboxamido)-4H-1,2,4-triazole-3-carboxylate], which IC50 is on record?
Its IC50 is 100 to 1000 nM.

How did the IC50 turn out when `CC(C)(O)[C@@H]1CC[C@@H](NC(=O)[C@H]2C[C@H](Oc3cc(F)cc4scnc34)C2)CO1` (racemic) [Example 139, Racemic (trans)-3-((6-Fluorobenzo[d]thiazol-4-yl)oxy)-N-((trans)-6-(2-hydroxypropan-2-yl)tetrahydro-2H-pyran-3-yl)cyclobutanecarboxamide] was run?
Its IC50 is 10 to 79.4 nM.

How did the IC50 turn out when `CC(C)(O)[C@H]1CC[C@H](NC(=O)N2CC(Oc3cccc4scnc34)C2)CC1` [Example 108, 3-(Benzo[d]thiazol-4-yloxy)-N-((trans)-4-(2-hydroxypropan-2-yl)cyclohexyl)azetidine-1-carboxamide] was run?
The IC50 was 10 to 79.4 nM.

`O=C(NC1CCN(c2ccccn2)C1)[C@H]1C[C@H](Oc2cccc3scnc23)C1` (mixture of isomers) [Example 82, Racemic (trans)-3-(Benzo[d]thiazol-4-yloxy)-N-(1-(pyridin-2-yl)pyrrolidin-3-yl)cyclobutanecarboxamide] was tested. Which IC50 did it give?
Its IC50 is 10 to 79.4 nM.

Which IC50 does the source give for `O=C(NC1CN(c2ccccn2)C1)[C@H]1C[C@H](Oc2cccc3scnc23)C1` [Example 81, (trans)-3-(Benzo[d]thiazol-4-yloxy)-N-(1-(pyridin-2-yl)azetidin-3-yl)cyclobutanecarboxamide] here?
The IC50 was 10 to 79.4 nM.

With `O=C(N[C@H]1CC[C@H](N[C@@H](CO)C(F)(F)F)CC1)[C@H]1C[C@H](Oc2cc(F)ccc2OC(F)F)C1` [Example 20, (trans)-3-(2-(Difluoromethoxy)-5-fluorophenoxy)-N-((trans)-4-(((S)-1,1,1-trifluoro-3-hydroxypropan-2-yl)amino)cyclohexyl)cyclobutanecarboxamide] as the compound, how does the IC50 read?
Its IC50 is 10 to 79.4 nM.

Which IC50 does the source give for `Cc1csc(NC(=O)[C@H]2C[C@H](Oc3cccc4cccnc34)C2)n1` [Example 218, (trans)-N-(4-Methylthiazol-2-yl)-3-(quinolin-8-yloxy)cyclobutanecarboxamide] here?
Its IC50 is 10 to 79.4 nM.

How did the IC50 turn out when `CC(C)Nc1nccc(N2CC(NC(=O)[C@H]3C[C@H](Oc4cccc5scnc45)C3)C2)n1` [Example 70, (trans)-3-(Benzo[d]thiazol-4-yloxy)-N-(1-(2-(isopropylamino)pyrimidin-4-yl)azetidin-3-yl)cyclobutanecarboxamide] was run?
The IC50 was 100 to 1000 nM.

With `CC(C)(C)c1nnc(NC(=O)[C@H]2C[C@H](Oc3cc(F)ccc3OC(F)F)C2)o1` [Example 16, (trans)-N-(5-(tert-Butyl)-1,3,4-oxadiazol-2-yl)-3-(2-(difluoromethoxy)-5-fluorophenoxy)cyclobutanecarboxamide] as the compound, how does the IC50 read?
The IC50 was 10 to 79.4 nM.

With `COCCO[C@H]1CC[C@H](NC(=O)[C@H]2C[C@H](Oc3cc(F)cc4scnc34)C2)CC1` [Example 115, (trans)-3-((6-Fluorobenzo[d]thiazol-4-yl)oxy)-N-((trans)-4-(2-methoxyethoxy)cyclohexyl)cyclobutanecarboxamide] as the compound, how does the IC50 read?
Its IC50 is 100 to 1000 nM.
